The text below walks through data of EP1053750A1, “Use of proteasome-inhibitor for the induction of programmed cell death (apoptosis)” (Max-Planck-Gesellschaft zur Förderung der Wissenschaften …, priority 1999, dated 2000).

Molecules are shown by their SMILES. Peptide text beside a SMILES is read from it. * marks the point of attachment. Cbz = O=C(OCc1ccccc1)*; OtBu = CC(C)(C)O*

The test system of one assay is BAE cells. The assay can be described thus: Viability assay (MIT assay), BAE cells. Type of assay: cell-based, bovine. Conditions: for EC50: Bos taurus.
In assay [1] the test system is HUE cells. Nature of the assay: Viability assay (MIT assay), HUE cells. Conditions: for EC50: Homo sapiens, 48 h, 48 h incubation. Type of assay: cell-based, human.
Another assay concerns MDCK epithelial cells. The assay can be described thus: Viability assay (MIT assay), MDCK cells. Conditions: for EC50: Canis lupus familiaris, 48 h, 48 h incubation. The assay is classed as cell-based, canine. On the procedure: The indicated values are expressed as the percentage of absorbance at 570 nm relative to the absorbance obtained by DMSO treated (control) cells.
Madin Darby canine kidney epithelial cells (MDCK; ATCC CLL-34) were grown in Dulbecco's Modified Eagle's Medium (DMEM) containing 10% FCS, penicillin and streptomycin.
Briefly, the cells were plated either at 3000 cells/well (low density) or 30000 cells/well (high density) onto 96 well plates and grown over night. […] The formazan cystals generated were subsequently dissolved in DMSO and absorption measured at 570 - 650 nm.

Another assay concerns caspase-3 like activity. Nature of the assay: Caspase activity in lysates of treated HUE cells, substrate Ac-DEVD-AMC. The assay is classed as cell-based, human. Conditions: HUE cell lysates, 50 µM.
A further assay relates to caspase-1 like activity. The assay can be described thus: Caspase activity in lysates of treated HUE cells, substrate Ac-YVAD-AMC. The assay is classed as cell-based, human. Conditions: HUE cell lysates, 50 µM, throughout the time course. On the procedure: Detection of a caspase-3-like activity in lysates of PSI-treated HUE cells. […] The specific caspase activities are shown as pmol of substrate hydrolyzed/min per µg of protein.
HUE cells (8 x 10^5) were plated onto 10 cm plastic dishes, allowed to attach overnight, and inhibitors were added to a final concentration of 50 µM for the times indicated in Fig. 4. DMSO, which served as the vehicle, was added to a final concentration of 0.1%. Floating and adherent cells were then harvested, lysed in Buffer I (1% Triton X100, 10 mM KCl, 20 mM HEPES pH 7.4, 1.5 mM MgCl2, 0.2 mM EGTA, 1 mM PMSF), snap frozen in liquid nitrogen and stored at -80°C until required. Lysates were centrifuged at 13000 g for 5 min at 4°C, the supernatants collected and protein concentrations determined using the BCA assay. A 40 µl aliquot of each sample was assayed in the presence of 20 µM Ac-DEVD-AMC or Ac-YVAD-AMC substrates (Bachem, Heidelberg, Germany) in Buffer II (50 mM PIPES-KOH pH 7.0, 0.1 mM EDTA, 1 mM DTT, 10% glycerol; total volume 250 µl) for 40 min at 37°C and the fluorescence intensity was measured with an excitation wavelength of 350 nm and emission wavelength of 430 nm. […] Specific activity was expressed as pmol AMC liberated per min and per µg protein in comparison to a standard curve calculated from the amount of free AMC (SIGMA, Deisenhofen, Germany).

The subject of assay [2] is subconfluent primary BAE cells. Nature of the assay: Apoptotic morphology (phase contrast, Hoechst 33342), BAE cells. The assay is classed as cell-based, bovine. Conditions: subconfluent BAE cells; 50 µM for 15 - 24 h, or 10 µM after 48 hours.
Assay [3] concerns HUE cells. The assay can be described thus: Apoptotic morphology (phase contrast, Hoechst 33342), HUE cells. Type of assay: cell-based, human. Conditions: subconfluent HUE cells, 50 µM, 18 - 24 hours. The text has this:
Phase contrast pictures are shown on the left, and identical areas which display the nuclear morphology after Hoechst staining are shown on the right. Arrowheads point at nuclei with apoptotic morphology. Scale bars are 50 µm.
Primary bovine aortic endothelial cells (BAE) were isolated from bovine pulmonary aorta according to the method of Schwartz (In Vitro 14 (1978), 966 - 980) and maintained in MDCB131 medium supplemented with 8% fetal calf serum (FCS), penicillin (100 lU/ml) and streptomycin (100 µg/ml) at 5% CO2. Human umbilical vein endothelial cells (HUE), an immortalized human umbilical vein endothelial cell line (ATCC CRL-1730) were cultured under the same conditions. Madin Darby canine kidney epithelial cells (MDCK; ATCC CLL-34) were grown in Dulbecco's Modified Eagle's Medium (DMEM) containing 10% FCS, penicillin and streptomycin.

For assay [4], the system named is HUE cells. Nature of the assay: DNA fragmentation assay. The assay is classed as cell-based, human. Conditions: 10 µM PSI for 18 hours, agarose gel. On the procedure:
• a. Analysis of PSI-induced DNA fragmentation by agarose gel electrophoresis. […] Neither caspase inhibitor (Ac-YVAD-CHO 250 µM, lane 4; Ac-DEVD-CHO 250 µM, lane 5) nor DMSO (lane 6) induced the characteristic pattern of DNA fragmentation. M1 and M2: DNA size markers (kb). • b. Immunoblot analysis of HUE cell lysates after incubation with PSI. […] Equal loading was controlled by using an antibody directed against GAPDH enzyme.
HUE cells which had been plated at 20000 cells/cm^2 24 hours before the assay, were treated with 250 µM of the caspase inhibitors Ac-YVAD-CHO or Ac-DEVO-CHO (Peptide Institute, Osaka, Japan) or the equivalent volume of dimethylsulfoxide (DMSO) for 1 h prior to additon of the proteasomal inhibitors. Incubation of the cells was continued for a further 18 h and the extent of DNA fragmentation was analyzed as previously described with some minor modifications (Hockenberry et al., Nature 348 (1990), 334 - 336). Briefly, both the floating cells and the adherent cells which were detached by trypsinization, were lysed in a solution containing 0.5% Triton X100, 10 mM EDTA and 10 mM Tris-HCL pH 7.5 for 30 min on ice. To separate the intact chromatin from the oligonucleosomal fragments, the lysate was centrifuged at 13000 g for 10 min at 4°C and the resulting supernatant was sequentially extracted with phenol followed by phenol/chloroform/iso-amylalcohol (25:24:1; v/v/v). Low molecular weight DNA was precipitated by the addition of 0.5 vol 7 M ammonium acetate and 2.5 vol ice-cold ethanol. The precipitate was washed in 75% ethanol, dissolved in TE-buffer, containing RNase A (20 µg/ml; Boehringer Mannheim), incubated for 30 min at 37°C and subjected to electrophoresis on 1.5% agarose gels.

Where [5] appears, read: EC50 confluent versus subconfluent, 2880 min.
The mark [6] stands for this setting: sub (low density, subconfluent).

Procedure for caspase-3 like activity: Subconfluent endothelial cells were incubated with the inhibitors for the indicated times, lysed and caspase activities determined using Ac-DEVD-AMC for caspase-3-like enzymes and Ac-YVAD-AMC for caspase-1-like activities as described in the Material and Methods section (PSI, filled circles; LLnM, open square; E64, open triangles; Leupeptin, filled triangles; Pepstatin, filled squares). The specific caspase activities are shown as pmol of substrate hydrolyzed/min per µg of protein.
HUE cells (8 x 10^5) were plated onto 10 cm plastic dishes, allowed to attach overnight, and inhibitors were added to a final concentration of 50 µM for the times indicated in Fig. 4. DMSO, which served as the vehicle, was added to a final concentration of 0.1%. Floating and adherent cells were then harvested, lysed in Buffer I (1% Triton X100, 10 mM KCl, 20 mM HEPES pH 7.4, 1.5 mM MgCl2, 0.2 mM EGTA, 1 mM PMSF), snap frozen in liquid nitrogen and stored at -80°C until required. Lysates were centrifuged at 13000 g for 5 min at 4°C, the supernatants collected and protein concentrations determined using the BCA assay. […] Specific activity was expressed as pmol AMC liberated per min and per µg protein in comparison to a standard curve calculated from the amount of free AMC (SIGMA, Deisenhofen, Germany).

In general, EC50 refers to the concentration at which the effect is half-maximal. In the case of `CC[C@H](C)[C@H](NC(=O)OCc1ccccc1)C(=O)N[C@@H](CCC(=O)OC(C)(C)C)C(=O)N[C@@H](C)C(=O)N[C@H](C=O)CC(C)C` [PSI, carbobenzoxy-L-isoleucyl-y-t-butyl-L-glutamyl-L-alanyl-L-leucinal] (Cbz-IE(OtBu)AL-aldehyde), the x difference in the assay with BAE cells (BAE, EC50 confluent versus subconfluent, 2880 min) was determined as 340 fold; with HUE cells [1] (setting [5]) it was 1119 fold; in the assay with MDCK epithelial cells (setting [5]), 194 fold. The EC50 in the assay on BAE cells (96 h, BAE cells seeded at high density, grown to confluency for 4 days) was found to be 8.15 µM; in the assay with BAE cells (BAE, con (grown to confluency for 4 days), 48 h incubation), 8.15 µM; in the assay on BAE cells (BAE, sub (low density, subconfluent), 48 h incubation, viability reduced to 50% of DMSO control) it was 0.024 µM; with HUE cells [1] (con (grown to confluency)), 7.83 µM; with HUE cells [1] (setting [6]), 0.007 µM; in the assay with MDCK epithelial cells (con (confluent)), 3.1 µM. The molecule further showed a concentration for a half-maximal effect (EC50) in the assay with MDCK epithelial cells (setting [6]) of 0.016 µM. Also, in the assay on caspase-3 like activity, the “time of maximum of Ac-DEVD-AMC cleavage” value is given as 15 h. Moreover, the caspase-1 like activity entry in the assay on caspase-1 like activity is given as “could not be detected”. Also, the “morphological changes associated with programmed cell death” value in assay [2] was “cytoplasmic shrinkage and bleb formation as well as extensive nuclear condensation and fragmentation”. The “induction of apoptosis (nuclear morphology)” value in the assay with HUE cells [3] was “Induction of apoptosis”. Also, the “DNA fragmentation (DNA ladder formation)” value with HUE cells [4] is “induced DNA ladder formation”.
